From patent US20130102591A1, “COMPOSITIONS AND METHODS FOR PREVENTION AND TREATMENT OF PULMONARY HYPERTENSION” (priority 2010, published 2013)
“Also recorded” adds a separate entry of the source.

Experiments:
[1] = tested on: MCT-induced pulmonary hypertension; conditions: reported in the literature; cited from earlier work
[2] = tested on: MCT-induced pulmonary hypertension; test: Mean pulmonary arterial pressure in the monocrotaline (MCT) rat pulmonary hypertension model; type: in vivo, Sprague-Dawley rats; conditions: 10 days of therapy starting 38 days after MCT
Description: (§1) Adult male Sprague-Dawley rats (250-350 g) (3 groups; n=5 per group) were treated with a single subcutaneous injection of monocrotaline (MCT; 60 mg/kg), a plant poison that induces a well-characterized experimental model of pulmonary hypertension, or an equivalent volume of saline (2 ml/kg; control). […] At the conclusion of the 10-day dosing period, rats were anesthetized and instrumented, and resting hemodynamic indices were recorded.
Rats were anesthetized with intramuscular ketamine (90 mg/kg) and pentobarbital sodium (15 mg/kg). The trachea was exposed and cannulated with a plastic tube that was connected to a Harvard ventilator. The animals were ventilated with room air at a tidal volume of 1.5 ml at a rate of 100 breaths/minute. A polyethylene catheter (PE-50) was inserted into the right carotid artery to measure the mean systemic arterial pressure (SAP). A polyvinyl (PV-1) catheter was inserted through the right jugular vein via the right atrium and ventricle into the pulmonary artery for measurement of the mean pulmonary arterial pressure (MPAP).

[3] = tested on: MCT-induced histological alterations in the lung; test: Lung histology (optical microscopy) in the MCT rat pulmonary hypertension model; type: in vivo, Sprague-Dawley rats; conditions: for Fibrosis score: 10 days starting 38 days after MCT; for Effect on histological lung injury (alveolar damage, inflammatory cell infiltrate, vascular smooth muscle hypertrophy), in words: groups 3 and 4 versus vehicle control (group 2)
Description: as §1
The lower lobe of the right lung was fixed with formalin solution. After paraffin embedding, […] sections were stained with haematoxylin and eosin and observed in a Dialux 22 Leitz (Wetziar, Germany) microscope. The score of lung fibrosis was assessed on sections stained with Masson Trichrome staining. For morphometric evaluations, all three lobes of right lung were inspected. […] Results are expressed as the percentage of vessels presenting indices of disease relative to the total number of vessels counted in the sections.

[4] = Tolerability during 10-day dosing in MCT rats (body weight, activity level); type: in vivo, Sprague-Dawley rats
Description: as §1

[5] = Solubility in solvents and aqueous liquids
[6] = listed as 3-nitratomethyl-2,2,5,5-tetramethylpyrrolidinyloxy
[7] = Group 3: MCT + compound 1a, 1.5 mg/kg/day BID, IP
[8] = Group 4: MCT + compound 1a, 2 mg/kg/day BID, PO

Row | SMILES | Effect in the same rodent model with comparably delayed initiation of therapy [1] | Effect on elevation of pulmonary (arterial) hypertension, in words [2] | Effect on elevation of pulmonary (arterial) hypertension, in words [2, 6] | Protection by chronic oral (enteral) treatment compared with IP treatment ([3]; 2 mg/kg/day PO versus 1.5 mg/kg/day BID IP) | Alveolar damage [3, 7] | Angioedema score [3, 7] | Muscolaris thickening score [3, 7] | Perivascular infiltrate score [3, 7] | Fibrosis score [3, 7] | Alveolar damage [3, 8] | Angioedema score [3, 8] | Muscolaris thickening score [3, 8] | Perivascular infiltrate score [3, 8] | Fibrosis score [3, 8] | Effect on histological lung injury (alveolar damage, inflammatory cell infiltrate, vascular smooth muscle hypertrophy), in words [3] | Effect on histological lung injury (alveolar damage, inflammatory cell infiltrate, vascular smooth muscle hypertrophy), in words [3, 6] | Effect on body weight or activity level [4] | Tolerability [4] | Solubility in ethyl acetate and dimethylsulfoxide (DMSO) [5] | Solubility in non-toxic aqueous liquids suitable for human administration ([5]; water, saline, dextrose solution, polyethylene glycol)
1 | COc1ccccc1Oc1c(NS(=O)(=O)c2ccc(C(C)(C)C)cc2)nc(-c2ncccn2)nc1OCCO [bosentan] | no effect |  |  |  |  |  |  |  |  |  |  |  |  |  |  |  |  |  |  | 
2 | CC1(C)CC(CO[N+](=O)[O-])C(C)(C)N1[O] (centres unmarked) [compound 1a, 3-nitratomethyl-2,2,5,5-tetramethylpyrrolidinyloxy] |  | highly effective; also recorded: significantly reduced | significantly reduced | slightly more protective | 0.50 ± 0.35 | 10.00 ± 8.86 percentage of vessels | 0.00 ± 0.00 percentage of vessels | 5.95 ± 5.71 percentage of vessels | 0.80 ± 0.57 | 0.70 ± 0.45 | 7.00 ± 2.78 percentage of vessels | 0.00 ± 0.00 percentage of vessels | 6.06 ± 2.44 percentage of vessels | 1.00 ± 0.79 | significantly reduced; also recorded: remarkably reduced | significantly reduced | absence of any effect | well tolerated | soluble | insoluble
